Experimental data published in the supplement of paper PMC10307832.

How the values were obtained:
Test in all cases: relative viability (nuclei count vs DMSO), 5 days (fraction); higher = more cells survive
Ponatinib + Crizotinib = compound: Cc1ccc(C(=O)Nc2ccc(CN3CCN(C)CC3)c(C(F)(F)F)c2)cc1C#Cc1cnc2cccnn12 [Ponatinib] + C[C@@H](Oc1cc(-c2cnn(C3CCNCC3)c2)cnc1N)c1c(Cl)ccc(F)c1Cl [Crizotinib] (partner 1 µM)
In short: (§1)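 Lung cancer cell lines were seeded in 1536-well plates and dosed by pin tool the next day, with either a single drug or a fixed anchor-drug dose combined with five library-drug doses (not always all listed) spaced in √10 steps. Five days later, one step fixed the cells and stained their nuclei (final 0.05% Triton X-100, 1% formaldehyde, 1 ug/ml Hoechst), and nuclei were counted on 4× images. Relative viability is the nuclei count in treated wells divided by the count in vehicle wells, and each value is the median of duplicate plates.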

Ponatinib + Linsitinib = compound: Cc1ccc(C(=O)Nc2ccc(CN3CCN(C)CC3)c(C(F)(F)F)c2)cc1C#Cc1cnc2cccnn12 [Ponatinib] + C[C@]1(O)C[C@@H](c2nc(-c3ccc4ccc(-c5ccccc5)nc4c3)c3c(N)nccn32)C1 [Linsitinib] (partner 1 µM)
In short: as §1

Ponatinib + Pictilisib = compound: Cc1ccc(C(=O)Nc2ccc(CN3CCN(C)CC3)c(C(F)(F)F)c2)cc1C#Cc1cnc2cccnn12 [Ponatinib] + CS(=O)(=O)N1CCN(Cc2cc3nc(-c4cccc5[nH]ncc45)nc(N4CCOCC4)c3s2)CC1 [Pictilisib] (partner 1 µM)
In short: as §1

Ponatinib + Tozasertib = compound: Cc1ccc(C(=O)Nc2ccc(CN3CCN(C)CC3)c(C(F)(F)F)c2)cc1C#Cc1cnc2cccnn12 [Ponatinib] + Cc1cc(Nc2cc(N3CCN(C)CC3)nc(Sc3ccc(NC(=O)C4CC4)cc3)n2)n[nH]1 [Tozasertib] (partner 0.1 µM)
In short: as §1

Ponatinib + OSI-027 = compound: Cc1ccc(C(=O)Nc2ccc(CN3CCN(C)CC3)c(C(F)(F)F)c2)cc1C#Cc1cnc2cccnn12 [Ponatinib] + COc1cccc2cc(-c3nc([C@H]4CC[C@H](C(=O)O)CC4)n4ncnc(N)c34)[nH]c12 [OSI-027] (partner 0.5 µM)
In short: as §1

Row | Cell Line | relative viability (Ponatinib + Crizotinib; first compound 0.002 µM) | relative viability (Ponatinib + Crizotinib; first compound 0.006325 µM) | relative viability (Ponatinib + Crizotinib; first compound 0.06325 µM) | relative viability (Ponatinib + Crizotinib; first compound 0.2 µM) | relative viability (Ponatinib + Linsitinib; first compound 0.002 µM) | relative viability (Ponatinib + Linsitinib; first compound 0.006325 µM) | relative viability (Ponatinib + Linsitinib; first compound 0.06325 µM) | relative viability (Ponatinib + Linsitinib; first compound 0.2 µM) | relative viability (Ponatinib + Pictilisib; first compound 0.002 µM) | relative viability (Ponatinib + Pictilisib; first compound 0.006325 µM) | relative viability (Ponatinib + Pictilisib; first compound 0.06325 µM) | relative viability (Ponatinib + Pictilisib; first compound 0.2 µM) | relative viability (Ponatinib + Tozasertib; first compound 0.002 µM) | relative viability (Ponatinib + Tozasertib; first compound 0.006325 µM) | relative viability (Ponatinib + Tozasertib; first compound 0.06325 µM) | relative viability (Ponatinib + Tozasertib; first compound 0.2 µM) | relative viability (Ponatinib + OSI-027; first compound 0.002 µM) | relative viability (Ponatinib + OSI-027; first compound 0.006325 µM) | relative viability (Ponatinib + OSI-027; first compound 0.06325 µM) | relative viability (Ponatinib + OSI-027; first compound 0.2 µM)
1 | NCI-H1915 | 0.801 | 0.844 | 0.839 | 0.794 | 1.02 | 1.08 | 1.09 | 0.995 | 0.892 | 0.98 | 1.03 | 1.03 | 0.396 | 0.487 | 0.313 | 0.366 | 0.546 | 0.651 | 0.639 | 0.56
2 | NCI-H1944 | 1.07 | 1.24 | 1.23 | 1.01 | 1.14 | 1.29 | 1.41 | 1.22 | 0.319 | 0.407 | 0.403 | 0.374 | 0.24 | 0.246 | 0.247 | 0.255 | 0.387 | 0.43 | 0.44 | 0.394
3 | NCI-H1975 | 0.929 | 1.02 | 1.01 | 0.943 | 0.876 | 0.867 | 0.99 | 1.01 | 0.311 | 0.309 | 0.408 | 0.353 | 0.677 | 0.774 | 0.275 | 0.196 | 0.602 | 0.575 | 0.47 | 0.503
4 | NCI-H1993 | 0.796 | 1.01 | 1.01 | 1 | 0.761 | 0.763 | 0.742 | 0.819 | 0.804 | 0.805 | 0.73 | 0.868 | 0.639 | 0.635 | 0.582 | 0.555 | 0.516 | 0.495 | 0.469 | 0.567
5 | NCI-H2009 | 1.04 | 0.975 | 1.11 | 1.02 | 1.11 | 1.16 | 1.11 | 1.1 | 0.755 | 0.838 | 0.794 | 0.625 | 0.713 | 0.726 | 0.848 | 0.749 | 0.486 | 0.496 | 0.759 | 0.545
6 | NCI-H2023 | 0.711 | 0.769 | 0.788 | 0.664 | 0.666 | 0.711 | 0.781 | 0.601 | 0.261 | 0.292 | 0.298 | 0.212 | 0.381 | 0.336 | 0.246 | 0.194 | 0.347 | 0.379 | 0.399 | 0.267
7 | NCI-H2085 | 0.837 | 0.704 | 0.939 | 0.842 | 0.831 | 0.831 | 1.09 | 0.741 | 0.489 | 0.477 | 0.451 | 0.488 | 0.722 | 0.849 | 0.662 | 0.576 | 0.624 | 0.704 | 0.753 | 0.727
8 | NCI-H2087 | 0.669 | 0.654 | 0.839 | 0.853 | 0.632 | 0.761 | 0.761 | 0.893 | 0.879 | 0.831 | 0.933 | 0.787 | 0.259 | 0.237 | 0.21 | 0.155 | 0.667 | 0.525 | 0.593 | 0.563
